The values below are quoted from earlier work in PMC2150373, “Phase I study of the mitomycin C analogue BMS-181174” (British Journal of Cancer, 1998).

This data set deals with patients. The conditions noted are these: clinical use of MMC, Rabadi et al, 1982, cited from earlier work.

For `CO[C@@]12[C@H](COC(N)=O)C3=C(C(=O)C(C)=C(N)C3=O)N1C[C@@H]1N[C@@H]12` [MMC, Mitomycin C], where the note is “ref Martino et al, 1979, Ratanatharathom et al”, the “patients with a rise in serum creatinine” value was 2%. For the same compound, the dose-limiting toxicity result (ref Carter and Crooke, 1979) is listed as “myelosuppression”.
